Test results reported in patent US20100055147A1, “ANGIOTENSIN (1-7) ELUTING STENT” (priority 2006, published 2010).

How the values were obtained:
[1] = test system: neointima formation in the rat abdominal aorta; test: Neointima area in stented rat abdominal aorta (histology); assay type: in vivo
Text: (§1) Specific pathogen-free, male Wistar rats (Harlan, Horst, Netherlands) were fed standard rat chow and water ad libitum. For Ang-(1-7) administration by minipump, 28 rats were used. The animals were anaesthetised with O2, N2O and isoflurane (Abbot B.V., Hoofddorp, Netherlands). In 20 animals, bare metal stents (Medtronic Driver® 2.5×8 mm stents) were placed in the abdominal aorta. Upon stent placement, osmotic minipumps (Model 2004, Alzet, Charles River, Maastricht, The Netherlands) were implanted subcutaneously for drug delivery via a catheter in the jugular vein. The pumps infused either Ang-(1-7) (Bachem, Well am Rhein, Germany) (24 μg/kg/h) (n=10) or saline (0.25 μl/h) (n=10). Furthermore, a control group underwent sham surgery (n=8: surgery identical to stent groups, but without balloon insertion and stenting), and received an osmotic minipump releasing saline. Treatment continued for four weeks. Five rats were excluded because of technical failure (aortic leakage or minipump failure) resulting in n=7 for Ang-(1-7) infusion, n=10 for saline infusion, and n-6 for sham-operated rats. […]
To determine if Ang-(1-7) infusion by minipump or elution from the stent reduced neointima formation, neointima area was measured in animals which received Ang-(1-7) either by stent or minipump (Table 1).

[2] = test system: isolated thoracic aorta rings; test: Organ bath, isolated thoracic aortic rings four weeks after stenting; assay type: in vivo, rat; conditions: minipump infusion, FIG. 5
Text: Specific pathogen-free, male Wistar rats (Harlan, Horst, Netherlands) were fed standard rat chow and water ad libitum. For Ang-(1-7) administration by minipump, 28 rats were used. The animals were anaesthetised with O2, N2O and isoflurane (Abbot B.V., Hoofddorp, Netherlands). In 20 animals, bare metal stents (Medtronic Driver® 2.5×8 mm stents) were placed in the abdominal aorta. Upon stent placement, osmotic minipumps (Model 2004, Alzet, Charles River, Maastricht, The Netherlands) were implanted subcutaneously for drug delivery via a catheter in the jugular vein. The pumps infused either Ang-(1-7) (Bachem, Well am Rhein, Germany) (24 μg/kg/h) (n=10) or saline (0.25 μl/h) (n=10). Furthermore, a control group underwent sham surgery (n=8: surgery identical to stent groups, but without balloon insertion and stenting), and received an osmotic minipump releasing saline. Treatment continued for four weeks. Five rats were excluded because of technical failure (aortic leakage or minipump failure) resulting in n=7 for Ang-(1-7) infusion, n=10 for saline infusion, and n-6 for sham-operated rats.
To test the effect of Ang-(1-7)-eluting stents (see Example 1 for details), 36 rats underwent placement of three types of stents into the abdominal aorta, bare metal stents, stents coated with polymer alone, or stents coated with polymer containing approximately 90 μg Ang-(1-7). Six rats were excluded because of technical failure during surgery, and three stents could not be processed due to incomplete polymerisation of embedding plastic (see below) leaving n=9 for bare metal stent, n=10 for stent with polymer only and n=8 for stent with polymer+Ang-(1-7).
Twenty-eight days after stent implantation, the animals were anaesthetised with O2, N2O and isoflurane, and systemically heparinized with 500 IE intravenously (Leo Pharma B.V., Breda, The Netherlands). The stented abdominal aortas were harvested, fixed, embedded in methylmethacrylate, sectioned and stained for histological analysis as described previously. […]
The stented aortas were evaluated in organ bath studies with isolated vascular rings. […] The endothelium-dependent vasodilation was assessed by a cumulative dose of metacholine (MeCh; 10 nM to 0.1 mM). […] The NO-dependent vasodilation to metacholine was calculated, by subtraction of the vasodilation in the presence of L-NMMA from the total vasodilation. The PG-dependent vasodilation in response to MeCh was calculated by subtraction of the vasodilation in the presence of L-NMMA and indomethacin from the vasodilation in the presence of L-NMMA. The EDHF-dependent vasodilation was determined by the vasodilation to metacholine in the presence of L-NMMA and indomethacin. […]

iliac artery = test: Small vessel myograph, iliac artery rings four weeks after stenting; assay type: in vivo, rat; conditions: FIG. 3
Text: as §1, with “weeks.” for “weeks. Five rats were excluded because of technical failure (aortic leakage or minipump failure) resulting in n=7 for Ang-(1-7) infusion, n=10 for saline infusion, and n-6 for sham-operated rats.”
(§2) Iliac and brachial arteries were prepared under a dissection microscope in Krebs solution that was kept at 4° C. […] After this, vessels were brought to tension in 20 μm steps until reaching a diameter corresponding to 100 mmHg transmural pressure (L100, calculated by exponential curve fitting with Excel software). […] All responses were recorded in grams tension. The responses to MeCh were expressed as the percent decrease in PE EC70 responses.

brachial artery = test: Small vessel myograph, brachial artery rings four weeks after stenting; assay type: in vivo, rat; conditions: minipump infusion
Text: as §1, with “weeks.” for “weeks. Five rats were excluded because of technical failure (aortic leakage or minipump failure) resulting in n=7 for Ang-(1-7) infusion, n=10 for saline infusion, and n-6 for sham-operated rats.”
as §2

[3] = test system: rat bone marrow mononuclear cells (MNC) and endothelial progenitor cells (EPC); test: Cultured rat bone marrow mononuclear cells (MNC) and endothelial progenitor cells (EPC); assay type: cell-based; conditions: 10^−7 mol/L, 7 days of culture
Experimental: Five rats were sacrificed by exsanguination under O2, N2O and isoflurane anaesthesia. Bone marrow was isolated from the left and right femurs by flushing the bone marrow cavity with sterile phosphate-buffered saline at room temperature (PBS, Gibco, Invitrogen, Breda, The Netherlands). From each individual rat, MNC were obtained by density gradient centrifugation at 2000 rpm (MSE Mistral 3000i, UK) for 20 minutes at room temperature according to manufacturer's instruction (Cedarlane Laboratories ltd., Hornby, Canada). Cells from individual rats were then resuspended in endothelial cell basal medium-2 (EGM; Cambrex Bioproducts, Clonetics, New Jersey, USA) containing supplemented 2% fetal bovine serum and EGM-2 SingleQuots (Clonetics). At day 1, 5×10^5 cells/well were seeded in 1% gelatin (225 bloom, Sigma-Aldrich, Zwijndrecht, The Netherlands) precoated 96-well culture plates (Costar, Corning, N.Y., USA) at 37° C. in a humidified incubator in the presence of 5% CO2. At day 3 of culture, medium with non-attached cells was removed, and replaced by fresh culture medium containing Ang-(1-7) at 10^−7 mol/L with or without antagonists (treatment medium). Next, cells were grown for 7 days, changing treatment medium at day 5 and day 7. At day 9, treatment medium was removed and culture medium supplemented with 10 μg/mL acetylated low-density lipoprotein (Dil-Ac-LDL) was added to the cells for 4 h. […]
Detection of staining was performed with the use of fluorescence microscopy (Leica, Wetzlar, Germany) at a magnification of 200×. […] Cells were quantified with the use of ImagePro software (Media Cybernetics, Silver Spring, USA). In the occasion that the presence of cell clusters hindered proper digital quantification, cell numbers were assessed by hand. […]
To this purpose MNC were isolated from rat bone marrow and cultured for 2 days to allow attachment. […] To determine if Ang-(1-7) preferentially stimulated EPC, the number of EPC was expressed as a percentage of the total population of MNC (FIG. 6B). […]

angiotensin-(1-7) (DRVYIHP; listed as Homo sapiens) [Ang-(1-7)]
neointimal formation (in words) ([1]; infusion using a minipump): reduction | Neointima area NIA ([1]; minipump infusion 24 μg/kg/h for four weeks, bare metal stent in rat abdominal aorta, p < 0.05 vs. saline): 0.51 ± 0.05 mm² | EDHF contribution to metacholine vasodilation ([2]; thoracic aorta): stimulated | NO release (contribution to metacholine vasodilation) ([2]; thoracic aorta): did not alter | PG contribution to metacholine vasodilation ([2]; thoracic aorta): stimulated | Emax of total response on metacholine ([2]; stented group showed 40% decrease): full recovery | vasodilation upon stimulation with metacholine (iliac artery; chronic infusion by minipump, iliac artery (downstream)): increased | vasoconstrictions (phenylephrine) (iliac artery; minipump infusion, iliac artery): remained equal | vasodilator function (brachial artery; brachial artery (remote), FIG. 4): improved | vasoconstrictor responses to phenylephrine (brachial artery; brachial artery, to the level of sham-operated rats): decreased | number of EPC ([3]; FIG. 6A): increased | number of MNC ([3]; FIG. 6A): increased | relative number of EPC (percentage of total MNC) ([3]; FIG. 6B): increased
